Holding throughout (type): cell-based
One experiment has as its system TOV-112D. The experiment is described as follows: Cell proliferation assay. Particulars: Homo sapiens, TOV112D, Table 7b, TOV-112D, read-out: Cell Proliferation Assay (EC50). The method, then: (§1) Measurement of the inhibitive effect of compounds on cancer cell proliferation was performed. The assays were performed under the following conditions: Cells are harvested at a concentration of 4×10^4 cells/ml in media. Volumes of 100 μL/well of these cell suspensions were added to a 96 well plate using a multichannel pipette. Plates were gently agitated to ensure an even dispersion of cells over a given plate. Cells were then incubated at 37° C., 5% CO2 overnight. Following this, 100 μL of compound at varying concentrations was added to wells in triplicate. Control wells are those with 100 μL media containing 0.33% DMSO added to cell suspension (this is the equivalent volume of DMSO found in the highest concentration of drug). Plates were then gently agitated, as above, and incubated at 37° C., 5% CO2 for 72 hrs (control wells have reached 80-90% confluency). Assessment of cell proliferation in the presence of Compounds C and F was determined by the acid phosphatase assay.
(§2) Following the incubation period of 72 hrs, media was removed from the plates. Each well on the plate was washed twice with 100 μL PBS. This was then removed and 100 μL of freshly prepared phosphatase substrate (10 mM p-nitrophenol phosphate in 0.1M sodium acetate, 0.1% triton X-100, pH 5.5) was added to each well. The plates were then incubated in the dark at 37° C. for 2 hours. Color development was monitored during this time. The enzymatic reaction was stopped by the addition of 50 μL of 1N NaOH. The plate was read in a dual beam plate reader at 405 nm with a reference wavelength of 620 nm. The absorbance reading of the latter is subtracted from the former, and the effect of the drug on cell proliferation was then measured as a percentage against the control cells (DMSO), which is taken as 0% inhibition.

The subject of a further experiment is HCT 116. The experiment in a line: Cell proliferation assay. Particulars: Homo sapiens, Table 7b, HCT-116, read-out: Cell Proliferation Assay (EC50). As to the method: as §1, §2
For the next experiment, the system named is cyclin D1. The experiment in a line: Western blot of Cyclin D1, Example 6B. Particulars: 250 nM, 24 h, compared to control (DMSO). The method, then: Cells were plated at a density of 3×10^5 cells/well for 24 hrs. Representative compounds or DMSO alone was then added to the wells for 24 h at 250 nM (note: Compound F was administered at a concentration of 2 μM). Cells were trypsinised, pelleted, washed ×3 in PBS, and lysed using a 2% SDS lysis solution (Sigma—05030).
Western blot analysis was then carried out to look at Cyclin D1 (Abeam—ab134175), PRK8 (Sigma—P6248), Rb (Abeam—[…]) and GAPDH (Sigma—G9545) levels.

Each structure is given as a SMILES string. Read-outs that look alike come from different tables or passages of the source.

For the compound `Cc1ccccc1C(=O)Nc1nc(NC(=O)c2ccc(CNC(C)C)cc2)nn1-c1ccc(OC(F)(F)F)cc1` [Compound 12x, N-(3-(4-((isopropylamino)methyl)benzamido)-1-(4-(trifluoromethoxy)phenyl)-1H-1,2,4-triazol-5-yl)-2-methylbenzamide], the EC50 worked out at 183 nM with TOV-112D (cells printed in nM) and 755 nM in the experiment on HCT 116 (cells printed in nM).
The like results for `CCCCCCC(=O)NCc1ccc(C(=O)Nc2nc(-c3ncccc3C)nn2-c2cccc(F)c2)cc1` [Compound 4x, N-(1-(3-fluorophenyl)-3-(3-methylpyridin-2-yl)-1H-1,2,4-triazol-5-yl)-4-(heptanamidomethyl)benzamide] were, in that order, 227 nM and 295 nM.
With `Cc1ccccc1C(=O)Nc1nc(-c2ccccc2O)nn1-c1ccc(N2CCNCC2)cc1` [Compound 7x, N-(3-(2-hydroxyphenyl)-1-(4-(piperazin-1-yl)phenyl)-1H-1,2,4-triazol-5-yl)-2-methylbenzamide], the “Cyclin D1 expression” value in the experiment with cyclin D1 (HCT-116) and with cyclin D1 (TOV-112) was “reduction of Cyclin D1 expression” throughout. The EC50 came to 285 nM in the experiment on TOV-112D (cells printed in nM) and 406 nM in the experiment with HCT 116 (cells printed in nM).
As to `Cc1cccnc1-c1nc(NC(=O)c2ccc(CN)cc2)n(-c2cccc(F)c2)n1` [Compound 6x, 4-(aminomethyl)-N-(1-(3-fluorophenyl)-3-(3-methylpyridin-2-yl)-1H-1,2,4-triazol-5-yl)benzamide], the “Cyclin D1 expression” value in the experiment on cyclin D1 (HCT-116) and in the experiment on cyclin D1 (TOV-112) was “reduction of Cyclin D1 expression” in each case. The EC50 in the experiment with TOV-112D (cells printed in μM) and in the experiment with HCT 116 (cells printed in μM) was 2000 nM each time.
`Cc1ccccc1C(=O)Nc1nc(NC(=O)c2ccc(CN)cc2)nn1-c1ccc(OC(F)(F)F)cc1` [Compound 1x, N-(3-(4-(aminomethyl)benzamido)-1-(4-(trifluoromethoxy)phenyl)-1H-1,2,4-triazol-5-yl)-2-methylbenzamide]: the EC50 in the experiment on TOV-112D (cells printed in nM) worked out at 350 nM; in the experiment with HCT 116 (cells printed in nM), 972 nM.
For `Cc1ccccc1C(=O)Nc1nc(NC(=O)c2cccc(CNC(C)C)c2)nn1-c1ccc(OC(F)(F)F)cc1` [Compound 13x, N-(3-(3-((isopropylamino)methyl)benzamido)-1-(4-(trifluoromethoxy)phenyl)-1H-1,2,4-triazol-5-yl)-2-methylbenzamide], the “Cyclin D1 expression” value with cyclin D1 (HCT-116) and in the experiment with cyclin D1 (TOV-112) was “reduction of Cyclin D1 expression” throughout. Besides, the values for the EC50 with TOV-112D (cells printed in nM) and with HCT 116 (cells printed in nM) were 231 nM and 426 nM, respectively.
Consider `NCc1ccc(C(=O)Nc2nc(-c3ccccc3O)nn2-c2ccc(OC(F)(F)F)cc2)cc1` [Compound 10x, 4-(aminomethyl)-N-(3-(2-hydroxyphenyl)-1-(4-(trifluoromethoxy)phenyl)-1H-1,2,4-triazol-5-yl)benzamide], for which the “Cyclin D1 expression” value with cyclin D1 (HCT-116) and in the experiment with cyclin D1 (TOV-112) was “reduction of Cyclin D1 expression” each time. Moreover, the EC50 in the experiment with TOV-112D (cells printed in nM) is 71 nM; in the experiment with HCT 116 (cells printed in nM) it was 108 nM.
As to `CCCCCCC(=O)NCc1ccc(C(=O)Nc2nc(-c3ncccc3C)nn2-c2ccc(OC(F)(F)F)cc2)cc1` [Compound 3x, 4-(heptanamidomethyl)-N-(3-(3-methylpyridin-2-yl)-1-(4-(trifluoromethoxy)phenyl)-1H-1,2,4-triazol-5-yl)benzamide], the EC50 in the experiment on TOV-112D (cells printed in nM) stood at 349 nM; in the experiment with HCT 116 (cells printed in nM), 484 nM.
The like results for `CCCCCCC(=O)N1CCN(c2ccc(-n3nc(-c4ccccc4O)nc3NC(=O)c3ccccc3C)cc2)CC1` [Compound 8x, N-(1-(4-(4-heptanoylpiperazin-1-yl)phenyl)-3-(2-hydroxyphenyl)-1H-1,2,4-triazol-5-yl)-2-methylbenzamide] were, in that order, 124 nM and 246 nM.
Take `Cc1ccccc1C(=O)Nc1nc(NC(=O)c2cccc(CN3CCOCC3)c2)nn1-c1ccc(OC(F)(F)F)cc1` [Compound 11x, 2-methyl-N-(3-(3-(morpholinomethyl)benzamido)-1-(4-(trifluoromethoxy)phenyl)-1H-1,2,4-triazol-5-yl)benzamide]: the “Cyclin D1 expression” value in the experiment with cyclin D1 (HCT-116) and with cyclin D1 (TOV-112) was “reduction of Cyclin D1 expression” throughout. In addition, the results for the EC50 with TOV-112D (cells printed in nM) and with HCT 116 (cells printed in nM) were 774 nM and 929 nM, respectively.
In the case of `Cc1ccccc1C(=O)Nc1nc(NC(=O)c2ccc(CN)cc2)n(-c2ccc(OC(F)(F)F)cc2)n1` [Compound 2x], the results for the EC50 with TOV-112D (cells printed in μM) and in the experiment with HCT 116 (cells printed in μM) were 4000 nM and 3000 nM, respectively.
For the compound `Cc1ccccc1C(=O)Nc1nc(NC(=O)c2ccc(CN3CCN(C)CC3)cc2)nn1-c1ccc(OC(F)(F)F)cc1` [Compound 14x, 2-methyl-N-(3-(4-((4-methylpiperazin-1-yl)methyl)benzamido)-1-(4-(trifluoromethoxy)phenyl)-1H-1,2,4-triazol-5-yl)benzamide], the “Cyclin D1 expression” value with cyclin D1 (HCT-116) and in the experiment with cyclin D1 (TOV-112) was “reduction of Cyclin D1 expression” each time. Besides, the EC50 in the experiment on TOV-112D (cells printed in nM) came out at 655 nM; in the experiment on HCT 116 (cells printed in nM) it was 412 nM.
Regarding `CCCCCCC(=O)NCc1ccc(C(=O)Nc2nc(-c3ccccc3O)nn2-c2ccc(OC(F)(F)F)cc2)cc1` [Compound 9x, 4-(heptanamidomethyl)-N-(3-(2-hydroxyphenyl)-1-(4-(trifluoromethoxy)phenyl)-1H-1,2,4-triazol-5-yl)benzamide], the EC50 worked out at 82 nM in the experiment on TOV-112D (cells printed in nM) and 121 nM in the experiment with HCT 116 (cells printed in nM).
Regarding `Cc1cccnc1-c1nc(NC(=O)c2ccc(CN)cc2)n(-c2ccc(OC(F)(F)F)cc2)n1` [Compound 5x, 4-(aminomethyl)-N-(3-(3-methylpyridin-2-yl)-1-(4-(trifluoromethoxy)phenyl)-1H-1,2,4-triazol-5-yl)benzamide], the “Cyclin D1 expression” value in the experiment with cyclin D1 (HCT-116) and in the experiment with cyclin D1 (TOV-112) was “reduction of Cyclin D1 expression” in each case. The EC50 in the experiment on TOV-112D (cells printed in nM) came to 114 nM; with HCT 116 (cells printed in nM) it was 133 nM.
With `Cc1ccccc1C(=O)Nc1nc(NC(=O)c2cccc(CN3CCN(C)CC3)c2)nn1-c1ccc(OC(F)(F)F)cc1` [Compound 15x, 2-methyl-N-(3-(3-((4-methylpiperazin-1-yl)methyl)benzamido)-1-(4-(trifluoromethoxy)phenyl)-1H-1,2,4-triazol-5-yl)benzamide], the EC50 worked out at 3000 nM in the experiment on TOV-112D (cells printed in μM) and 1000 nM in the experiment with HCT 116 (cells printed in μM).
In the case of `Cc1ccccc1C(=O)Nc1nc(NC(=O)c2ccc(CNC(=O)[C@@H]3CCCN3)cc2)nn1-c1ccc(OC(F)(F)F)cc1` [Compound 16x, (S)—N-(4-((5-(2-methylbenzamido)-1-(4-(trifluoromethoxy)phenyl)-1H-1,2,4-triazol-3-yl)carbamoyl)benzyl)pyrrolidine-2-carboxamide], the EC50 in the experiment with TOV-112D (cells printed in nM) amounted to 659 nM; in the experiment on HCT 116 (cells printed in nM), 412 nM.
